Assay results: the supplement of paper PMC10307832

Key:
Test in all cases: relative viability (nuclei count vs DMSO), 5 days (fraction); higher = more cells survive
Dovitinib + Lapatinib = compound: CN1CCN(c2ccc3nc(-c4c(N)c5c(F)cccc5[nH]c4=O)[nH]c3c2)CC1 [Dovitinib] + CS(=O)(=O)CCNCc1ccc(-c2ccc3ncnc(Nc4ccc(OCc5cccc(F)c5)c(Cl)c4)c3c2)o1 [Lapatinib] (partner 2 µM)
Procedure, shortened: (§1)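 Relative viability divides the nuclei count in treated wells by that in vehicle wells. Lung cancer cell lines were seeded in 1536-well plates, dosed by pin tool the next day, and fixed and stained after 5 days in one step with final 0.05% Triton X-100, 1% formaldehyde and 1 ug/ml Hoechst. Dosing was a single drug or a fixed anchor-drug dose plus five library-drug doses (not always all listed) in √10 steps, and values are medians of duplicate plates imaged at 4×.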

Dovitinib + Linsitinib = compound: CN1CCN(c2ccc3nc(-c4c(N)c5c(F)cccc5[nH]c4=O)[nH]c3c2)CC1 [Dovitinib] + C[C@]1(O)C[C@@H](c2nc(-c3ccc4ccc(-c5ccccc5)nc4c3)c3c(N)nccn32)C1 [Linsitinib] (partner 1 µM)
Procedure, shortened: as §1

Dovitinib + OSI-027 = compound: CN1CCN(c2ccc3nc(-c4c(N)c5c(F)cccc5[nH]c4=O)[nH]c3c2)CC1 [Dovitinib] + COc1cccc2cc(-c3nc([C@H]4CC[C@H](C(=O)O)CC4)n4ncnc(N)c34)[nH]c12 [OSI-027] (partner 0.5 µM)
Procedure, shortened: as §1

Dovitinib + Luminespib = compound: CN1CCN(c2ccc3nc(-c4c(N)c5c(F)cccc5[nH]c4=O)[nH]c3c2)CC1 [Dovitinib] + CCNC(=O)c1noc(-c2cc(C(C)C)c(O)cc2O)c1-c1ccc(CN2CCOCC2)cc1 [Luminespib] (partner 0.01 µM)
Procedure, shortened: as §1

Cell Line	relative viability (Dovitinib + Lapatinib; first compound 0.02 µM)	relative viability (Dovitinib + Lapatinib; first compound 0.06325 µM)	relative viability (Dovitinib + Lapatinib; first compound 0.2 µM)	relative viability (Dovitinib + Lapatinib; first compound 0.6325 µM)	relative viability (Dovitinib + Lapatinib; first compound 2 µM)	relative viability (Dovitinib + Linsitinib; first compound 0.02 µM)	relative viability (Dovitinib + Linsitinib; first compound 0.06325 µM)	relative viability (Dovitinib + Linsitinib; first compound 0.2 µM)	relative viability (Dovitinib + Linsitinib; first compound 0.6325 µM)	relative viability (Dovitinib + Linsitinib; first compound 2 µM)	relative viability (Dovitinib + OSI-027; first compound 0.02 µM)	relative viability (Dovitinib + OSI-027; first compound 0.06325 µM)	relative viability (Dovitinib + OSI-027; first compound 0.2 µM)	relative viability (Dovitinib + OSI-027; first compound 0.6325 µM)	relative viability (Dovitinib + OSI-027; first compound 2 µM)	relative viability (Dovitinib + Luminespib; first compound 0.02 µM)	relative viability (Dovitinib + Luminespib; first compound 0.06325 µM)	relative viability (Dovitinib + Luminespib; first compound 0.2 µM)	relative viability (Dovitinib + Luminespib; first compound 0.6325 µM)	relative viability (Dovitinib + Luminespib; first compound 2 µM)
NCI-H1437	0.813	0.802	0.843	0.821	0.788	0.963	1.05	0.984	0.955	1.03	0.877	0.881	0.867	0.903	0.916	1.07	1.12	1.13	0.985	1.07
SK-LU-1	0.735	0.927	0.875	0.814	0.823	1.1	0.999	0.966	1.07	1.06	0.3	0.386	0.359	0.388	0.316	0.203	0.19	0.204	0.18	0.198
BEN	0.533	0.822	0.835	0.771	0.808	0.874	0.873	1.07	0.922	0.898	0.319	0.302	0.342	0.312	0.287	0.258	0.458	0.432	0.512	0.203
LC-2-ad	0.772	0.962	1.04	1.02	0.686	0.798	0.919	0.84	0.782	0.773	0.879	0.929	0.984	0.744	0.831	0.991	0.994	1.01	0.979	0.995
COR-L23	0.918	0.983	1.04	1.01	0.882	0.876	1.05	0.943	0.896	1.04	0.681	0.856	0.835	0.791	0.823	0.581	0.788	0.695	0.664	0.72
RERF-LC-KJ	0.94	0.884	0.853	0.909	0.825	0.89	0.934	0.938	0.838	0.842	0.639	0.623	0.653	0.56	0.574	1.32	1.25	1.4	1.19	1.47
NCI-H1915	0.87	0.955	0.971	0.944	1.02	1.09	1.09	1.08	1.09	1.05	0.559	0.635	0.621	0.602	0.647	0.717	0.897	0.884	0.775	0.781
NCI-H596	1.05	1.13	1.14	0.894	1	1.03	1.01	1.09	0.96	0.954	0.644	0.776	0.669	0.808	0.779	1.12	1.11	0.942	1.16	0.835
NCI-H2009	0.768	0.954	0.912	0.928	1.13	1.16	1.18	1.15	1.2	1.2	0.546	0.621	0.642	0.638	0.611	0.974	1.11	0.981	0.973	1.13
NCI-H2126	0.692	0.726	0.744	0.734	0.797	0.697	0.691	0.748	0.747	0.696	0.74		0.855	0.699	0.638	0.937	0.864	1.09	0.877	0.83
LXF-289	0.813	0.904	0.88	0.867	0.873	0.907	0.942	0.935	0.939	0.878	0.771	0.813	0.952	0.873	0.744	0.722	0.683	0.737	0.677	0.663
NCI-H1563	0.92	0.994	0.944	0.982	1.18	1.28	1.17	1.14	1.21	1.2	0.825	0.797	0.827	0.758	0.785	0.567	0.481	0.615	0.509	0.543
HCC-44	1.01	1.02	1.03	0.938	1.01	0.681	0.667	0.681	0.773	0.628	0.538	0.578	0.569	0.485	0.524	0.981	0.976	1.12	1.11	1.02
